From patent US20110081662A1, “SCREENING METHODS FOR BONE MORPHOGENETIC MIMETICS” (THRASOS THERAPEUTICS, INC., priority 2000, published 2011)
Bridges are numbered along the chain shown (N, C = ends). Where no end group is shown, it is not given here.

Legend:
daf-4 ECD = biological target: T1, daf-4 ECD (Caenorhabditis elegans, UniProt P50488); assay: BMP binding to purified daf-4 ECD (ligand blot, Scatchard analysis); set-up: species or system C. elegans
T1 construct: 1 includes additional portions on the N and C terminus; made in house; host or cells: transfected DHFR(-) CHO cell line PJ511.9.8, purified from conditioned medium
T1 sequence (P50488 with tags, fused parts or gaps): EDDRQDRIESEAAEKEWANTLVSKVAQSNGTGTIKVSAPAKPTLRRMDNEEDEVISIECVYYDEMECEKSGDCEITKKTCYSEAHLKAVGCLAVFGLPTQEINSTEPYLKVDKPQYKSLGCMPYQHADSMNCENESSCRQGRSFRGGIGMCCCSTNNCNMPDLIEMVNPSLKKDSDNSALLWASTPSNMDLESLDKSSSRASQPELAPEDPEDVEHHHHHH
Description: A novel ligand-blot technique was developed to evaluate the binding of BMP-7 to the purified daf-4 ECD.

[1] = system: BMP-7 receptor-enriched plasma membrane fraction of ROS cells; assay: Radio-ligand receptor assay (displacement of 125I-labeled BMP-7); type: binding, rat
Description: Radio-ligand receptor Assay: The receptor-binding activities of various BMP ligands (New York Public Health Labs, Albany, N.Y.) were determined by an equilibrium displacement binding isotherm assay using BMP-7 receptor-enriched plasma membrane fraction of ROS cells (ATCC 17-2.8) and ^125I-labeled BMP-7 (NEN, Billerica, Mass.) as ligand. Purified BMP-7 was radio-iodinated BMP-7 to a specific activity of 70-78 uCi/ug by a modified procedure of lactoperoxidase method (Schneyer, A. L., et al., Endocrinology 119, 1446-1453 (1986)). The percent bindability of radioiodinated BMP-7 to excess receptor is 30-37%. Receptors from ROS cells are obtained by a procedure previously described (Dattatreyamurty, B., et al., (1986) J. Biol. Chem. 261.). […] In a typical assay, fixed amounts of ^125I-labeled sol. BMP-7 (−80.000 cpm) were incubated with a fixed amount of receptor-enriched plasma membrane fraction in the presence (5 ug. for non-specific binding) or absence of excess unlabeled BMP-7 (for total binding). Displacement curves were generated with increasing concentrations of BMP-7 standard preparation (5-2000 ng). The assay incubations were carried out in a reaction volume of 300 μl with shaking for 22 hrs. at 4° C. Bound and unbound ^125I-labeled BMP-7 were separated by centrifugation (30,500×g. 30 minutes). The supernatants were aspirated and pellets washed before counting in a gamma counter (Packard Instr. Downers Grove, Ill.). The concentration of test agent required to give 50% inhibition of total specific binding of ^125I-labeled BMP-7 ^(ED50^) was calculated from competitive data.

[2] = system: BMP-7 induced and basal alkaline phosphatase activity in ROS cells (rat Osteosarcoma 17/2.8); assay: ROS cell based alkaline phosphatase assay; settings: for IC50: peptide together with BMP-7 (1.33 nM), ROS cells, 2 days, read-out: peptide concentration giving 50% inhibition of cellular responsiveness to BMP-7
Description: ROS Cell Based Alkaline Phosphatase Assays: BMP-7 and test agents that bind BMP-7 receptors were analyzed by in vitro bioassay. This assay defines the role of these test agents at the receptor-binding site. It is believed that some of the test agents can effectively interact with receptors and inhibit BMP-7 induced target cell responsiveness, thereby acting as functional antagonists. Alternatively, these agents may mimic BMP-7 functions inducing alkaline phosphatase activity in ROS cells, thus acting as functional agonists. An assay procedure as described by Maliakal, J. C., et al., Growth Factors 11, 227-234, (1994) determined the biological activities of BMP-7 peptides. In a typical experiment, rat Osteosarcoma (17/2.8) cells were plated in 96 well plates (3.0×10^4 cells/well) and incubated overnight at 37 C in 5-6% CO2 incubator. Next day, the plates were examined to make sure that cells are healthy & confluent. Cells were treated with increasing concentrations of BMP-7 standard (1-10,000 ng/ml) or test agents (0.02-200 μM) or appropriate concentrations of test agent alone or with BMP-7 standard prepared in medium containing 1% FBS and incubated for 2 days at 37 C in 5-6% CO2 incubator. The cellular content of alkaline phosphatase activity was determined by the method of Reddi, A. H. & Huggins, C. B. Proc. Natl. Acad. Sci. USA 69, 1601-1605 (1972). Enzyme estimations were routinely carried out in 96 well plates. Following removal of culture medium, cells were washed with pre-warmed PBS (150 μl) and further incubated in 100 μl of pre-warmed 1% Triton X-100 for 30 minutes at 37 C. Plates were centrifuged for 10 minutes at full speed, and recovered samples (each 15 μl) were assayed for enzyme activity by adding 90 μl p-nitrophenyl phosphate (Sigma, St. Louis, Mo.) as a substrate in 0.05 M glycine-NaOH buffer, pH 9.3 and incubating for 20 minutes at 37 C. The reaction was stopped by adding 75 ul of 0.2 N NaOH/well and absorbance at 405/490 nm is measured on a Dynatech MR 700 plate reader (Dynatech Laboratories, U.K.). Results are expressed as concentration of peptide/small molecule inhibitor (with antagonist activity) required to give 50% inhibition of maximum response to BMP-7 standard. The activities of test agents that stimulate cell responsiveness (with agonist activity), are expressed relative to BMP-7 standard.

[3] = lower peptide concentrations (0.6-60 μM)

IC50 [2]	Substance	effect on basal cell responsiveness (basal alkaline phosphatase activity) ([2]; peptide alone)	behaviour of peptide on BMP-7 induced cell responsiveness ([2]; peptide together with BMP-7)	other results
10 µM	CFRDLGWQDWIIAPC, SEQ I.D NO. 4; 15 residue peptide cyclized at the ends (disulfide 1-15 (inferred); listed as Homo sapiens) [Peptide F1-2]	weakly inhibiting	antagonist	activity in radioligand receptor assay [1]: relatively weak activity; concentration required to inhibit the binding of 125I-labeled BMP-7 to the receptor ([1]; ROS cell plasma membranes): 179 µM
20 µM	CELYVSFRDLGWQDWIIAPEGYAAYC, SEQ I.D NO. 3; BMP-7 finger 1 peptide with cyclized ends (disulfide 1-26 (inferred); listed as Homo sapiens) [Peptide F1-1]		antagonist	peptide concentration effective to inhibit basal cellular responsiveness ([2]; peptide alone): 52 to 260 µM
8 µM	CLNAISVLYFDDSSNVILKKYRNMVVRC, SEQ ID NO. 10; cyclized (disulfide 1-28 (inferred); listed as Homo sapiens) [Peptide F2-1]	effectively inhibited	effectively inhibited	

The next lines start with the substance.

Substance	IC50 [2]	effect on basal cell responsiveness (basal alkaline phosphatase activity) ([2]; peptide alone)	behaviour of peptide on BMP-7 induced cell responsiveness ([2]; peptide together with BMP-7)	other results
BMP-4: bone morphogenetic protein				binding to extracellular domain of daf-4 (daf-4 ECD): readily binds
F2-2c: CIVNSSDDFYC SEQ I.D NO. 8; control peptide, residues of F2-2 in reverse order (disulfide 1-11 (inferred); listed as Homo sapiens) [Peptide F2-2c, reference compound]		no effect	no effect	activity in radioligand receptor assay [1]: inactive
CCFINPETVCC, SEQ I.D NO. 6; cyclized (disulfide (positions not given here); also: cyclized (mode not given here); listed as Homo sapiens) [Peptide H-2C]	5 µM	inhibiting	antagonist	effect on binding of 125I-labeled BMP-7 to the receptor ([1]; peptide at 8 μM): potentiated
H-1: CAFPLNSYMNATNHAIVQTLVHFINPETVPKC SEQ ID NO 5; heel peptide, cyclized (disulfide 1-32 (inferred); listed as Homo sapiens) [Peptide H-1]		effective only at very high concentrations	weak antagonist	concentrations required to inhibit the BMP-7 induced cell response ([2]; peptide together with BMP-7): 44 to 220 µM
CYFDDSSNVIC SEQ I.D NO. 7; 9 residues, ends cyclized (disulfide 1-11 (inferred); listed as Homo sapiens) [Peptide F2-2]				effect on responsiveness to BMP-7 at higher concentrations ([2]; higher peptide concentrations (above 0.6-60 μM)): inhibited; behaviour of peptide on BMP-7 induced cell responsiveness at lower concentrations [2, 3]: weak agonist; potentiation of BMP-7 induced cell responsiveness [2, 3]: 20%
